Assay results as given in PubChem BioAssay AID330 (DTP/NCI, 2004).
Where “and” joins values, the source holds several entries; their conditions need not be identical. Equal values may be shown once. Inconclusive results and toxic doses are left out. The calls were made as follows: active = survival T/C of 150% or more; inactive = T/C below 125% in these data.

System: P388 leukemia ip, CD2F1 mice, survival T/C
Assay: NCI In Vivo Anticancer Drug Screen. Data for tumor model P388 Leukemia (intraperitoneal) in CD2F1 (CDF1) mice
Conditions: endpoint: median survival time, higher = longer survival
Procedure, shortened: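 Mice carrying the transplanted tumor received test compound or vehicle. Survival was recorded in each group, and the value is the treated-group measurement divided by that of the vehicle-treated control group.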

[1] = dose: 50.0 mg/kg/injection, schedule: Q01DX009 (ip), vehicle: Klucel (hydroxypropylcellulose) (HPC)
[2] = dose: 100.0 mg/kg/injection, schedule: Q01DX009 (ip), vehicle: Klucel (hydroxypropylcellulose) (HPC)
[3] = dose: 50.0 mg/kg/injection, schedule: Q01DX005 (ip), vehicle: Klucel (hydroxypropylcellulose) (HPC)
[4] = dose: 100.0 mg/kg/injection, schedule: Q01DX005 (ip), vehicle: Klucel (hydroxypropylcellulose) (HPC)
[5] = dose: 200.0 mg/kg/injection, schedule: Q01DX005 (ip), vehicle: Klucel (hydroxypropylcellulose) (HPC)
[6] = dose: 50.0 mg/kg/injection, schedule: Q01DX005 (ip), vehicle: saline
[7] = dose: 100.0 mg/kg/injection, schedule: Q01DX005 (ip), vehicle: saline
[8] = dose: 200.0 mg/kg/injection, schedule: Q01DX005 (ip), vehicle: saline
[9] = dose: 12.5 mg/kg/injection, schedule: Q01DX009 (ip), vehicle: saline with Tween-80
[10] = dose: 25.0 mg/kg/injection, schedule: Q01DX009 (ip), vehicle: saline with Tween-80

Measured: T/C

OCC1OC(n2cnc3c2NC=NC[C@H]3O)CC1O (some centres undefined)
inactive: dose: 0.05 mg/kg/injection, schedule: Q03HX024 (ip), vehicle: clinical formulation 100 % of control | dose: 0.05 mg/kg/injection, schedule: Q03HX024 (ip), vehicle: water 99 % of control | dose: 0.1 mg/kg/injection, schedule: Q03HX024 (ip), vehicle: clinical formulation 100 % of control | dose: 0.1 mg/kg/injection, schedule: Q03HX024 (ip), vehicle: water 100 % of control | dose: 0.12 mg/kg/injection, schedule: Q01DX009 (ip), vehicle: water 111 % of control | dose: 0.13 mg/kg/injection, schedule: Q01DX009 (ip), vehicle: saline 112 % of control | dose: 0.2 mg/kg/injection, schedule: Q03HX024 (ip), vehicle: clinical formulation 100 % of control | dose: 0.2 mg/kg/injection, schedule: Q03HX024 (ip), vehicle: water 100 % of control | dose: 0.25 mg/kg/injection, schedule: Q01DX005 (ip), vehicle: water 101 % of control and 102 % of control | dose: 0.25 mg/kg/injection, schedule: Q01DX009 (ip), vehicle: saline 100 % of control and 119 % of control | dose: 0.25 mg/kg/injection, schedule: Q01DX009 (ip), vehicle: water 103 % of control and 111 % of control | dose: 0.25 mg/kg/injection, schedule: Q04DX002 (ip), vehicle: saline 99 % of control and 112 % of control | dose: 0.25 mg/kg/injection, schedule: Q04DX003 (ip), vehicle: saline 101 % of control | dose: 0.38 mg/kg/injection, schedule: Q01DX009 (ip), vehicle: saline 107 % of control | dose: 0.5 mg/kg/injection, schedule: Q01DX005 (ip), vehicle: water 99 % of control and 101 % of control | dose: 0.5 mg/kg/injection, schedule: Q01DX009 (ip), vehicle: saline 109 % of control and 110 % of control | dose: 0.5 mg/kg/injection, schedule: Q01DX009 (ip), vehicle: water 99 % of control and 118 % of control | dose: 0.5 mg/kg/injection, schedule: Q04DX002 (ip), vehicle: saline 106 % of control and 109 % of control | dose: 0.5 mg/kg/injection, schedule: Q04DX003 (ip), vehicle: saline 101 % of control | dose: 0.66 mg/kg/injection, schedule: Q01DX009 (ip), vehicle: saline 92 % of control | dose: 0.75 mg/kg/injection, schedule: Q01DX009 (ip), vehicle: saline 104 % of control | dose: 1.0 mg/kg/injection, schedule: Q01DX005 (ip), vehicle: water 102 % of control | dose: 1.0 mg/kg/injection, schedule: Q01DX009 (ip), vehicle: saline 107 % of control and 94 % of control | dose: 1.0 mg/kg/injection, schedule: Q01DX009 (ip), vehicle: water 101 % of control | dose: 1.5 mg/kg/injection, schedule: Q01DX009 (ip), vehicle: saline 103 % of control | dose: 2.0 mg/kg/injection, schedule: Q01DX005 (ip), vehicle: water 102 % of control | dose: 2.0 mg/kg/injection, schedule: Q01DX009 (ip), vehicle: saline 102 % of control | dose: 2.0 mg/kg/injection, schedule: Q01DX009 (ip), vehicle: water 86 % of control | dose: 3.0 mg/kg/injection, schedule: Q01DX009 (ip), vehicle: saline 107 % of control | dose: 4.0 mg/kg/injection, schedule: Q01DX005 (ip), vehicle: water 104 % of control | dose: 4.0 mg/kg/injection, schedule: Q01DX009 (ip), vehicle: water 86 % of control

CN(C)CCOC1=Nc2ccccc2O/C1=C/c1ccccc1
inactive: [1] 100 % of control | [2] 111 % of control

O=[N+]([O-])c1ccccc1/C=C\c1ccccn1
inactive: [3] 104 % of control | [4] 101 % of control | [5] 101 % of control

CCCCCCCCCCCCC1C(=O)NCCNCCCNCCNC1=O
inactive: dose: 12.5 mg/kg/injection, schedule: Q01DX005 (ip), vehicle: saline 101 % of control | dose: 25.0 mg/kg/injection, schedule: Q01DX005 (ip), vehicle: saline 97 % of control | [6] 105 % of control

c1ccc2[s+]csc2c1
inactive: dose: 6.25 mg/kg/injection, schedule: Q01DX009 (ip), vehicle: distilled water + Tween-80 102 % of control | dose: 12.5 mg/kg/injection, schedule: Q01DX009 (ip), vehicle: distilled water + Tween-80 92 % of control | dose: 25.0 mg/kg/injection, schedule: Q01DX009 (ip), vehicle: distilled water + Tween-80 107 % of control | dose: 50.0 mg/kg/injection, schedule: Q01DX009 (ip), vehicle: distilled water + Tween-80 108 % of control | dose: 100.0 mg/kg/injection, schedule: Q01DX009 (ip), vehicle: distilled water + Tween-80 93 % of control

C=Cc1cc(C)ccc1C(=O)OCCCCCCCCCCCC
inactive: [1] 98 % of control | [2] 101 % of control | dose: 200.0 mg/kg/injection, schedule: Q01DX009 (ip), vehicle: Klucel (hydroxypropylcellulose) (HPC) 98 % of control

COC1OC(CO)C(O)C(O)C1N1C(=O)c2ccccc2C1=O (centres undefined)
inactive: [3] 100 % of control | [6] 97 % of control | [4] 98 % of control | [7] 97 % of control | [5] 97 % of control | [8] 101 % of control

C[CH2][Pb]([Br])([CH2]C)[CH2]C
inactive: dose: 3.12 mg/kg/injection, schedule: Q01DX009 (ip), vehicle: saline with Tween-80 105 % of control and 97 % of control | dose: 6.25 mg/kg/injection, schedule: Q01DX009 (ip), vehicle: saline with Tween-80 103 % of control and 107 % of control | [9] 113 % of control and 114 % of control | [10] 106 % of control | dose: 50.0 mg/kg/injection, schedule: Q01DX009 (ip), vehicle: saline with Tween-80 107 % of control

C1CCC(C2CCCC[N-]2)[N-]C1.C1CCC(C2CCCC[N-]2)[N-]C1.[Cl][Co][Cl] (centres undefined)
inactive: dose: 50.0 mg/kg/injection, schedule: Q01DX009 (ip), vehicle: saline 100 % of control | dose: 100.0 mg/kg/injection, schedule: Q01DX009 (ip), vehicle: saline 109 % of control

OC(CNC1CCCCC1)CO/N=C1\CCSc2c(Cl)cccc21 (centres undefined)
inactive: dose: 3.12 mg/kg/injection, schedule: Q04DX002 (ip), vehicle: Klucel (hydroxypropylcellulose) (HPC) 94 % of control | dose: 6.25 mg/kg/injection, schedule: Q04DX002 (ip), vehicle: Klucel (hydroxypropylcellulose) (HPC) 99 % of control | dose: 12.5 mg/kg/injection, schedule: Q04DX002 (ip), vehicle: Klucel (hydroxypropylcellulose) (HPC) 103 % of control | dose: 25.0 mg/kg/injection, schedule: Q04DX002 (ip), vehicle: Klucel (hydroxypropylcellulose) (HPC) 100 % of control | dose: 100.0 mg/kg/injection, schedule: Q04DX002 (ip), vehicle: Klucel (hydroxypropylcellulose) (HPC) 96 % of control | dose: 200.0 mg/kg/injection, schedule: Q04DX002 (ip), vehicle: Klucel (hydroxypropylcellulose) (HPC) 87 % of control

CCCCCC(C[N+]1(C)CCOCC1)C(=O)/C=C/c1ccccc1 (centres undefined)
inactive: [9] 96 % of control | dose: 12.5 mg/kg/injection, schedule: Q01DX009 (ip), vehicle: saline 108 % of control | [10] 108 % of control | dose: 25.0 mg/kg/injection, schedule: Q01DX009 (ip), vehicle: saline 108 % of control

C#CC(=O)OC
inactive: dose: 25.0 mg/kg/injection, schedule: Q04DX002 (ip), vehicle: saline 102 % of control | dose: 50.0 mg/kg/injection, schedule: Q04DX002 (ip), vehicle: saline 98 % of control | dose: 100.0 mg/kg/injection, schedule: Q04DX002 (ip), vehicle: saline 106 % of control

NS(=O)(=O)c1ccc(N=Cc2c3ccccc3nc3cc(Cl)ccc23)cc1
inactive: dose: 50.0 mg/kg/injection, schedule: Q01DX005 (ip), vehicle: saline with Tween-80 91 % of control | dose: 100.0 mg/kg/injection, schedule: Q01DX005 (ip), vehicle: saline with Tween-80 88 % of control | dose: 200.0 mg/kg/injection, schedule: Q01DX005 (ip), vehicle: saline with Tween-80 88 % of control

CC(=O)OCC1OC(n2cccc(OC(C)=O)c2=O)C(OC(C)=O)C1OC(C)=O (centres undefined)
inactive: [6] 103 % of control | dose: 50.0 mg/kg/injection, schedule: Q01DX005 (ip), vehicle: suspension in saline 99 % of control | [7] 99 % of control | dose: 100.0 mg/kg/injection, schedule: Q01DX005 (ip), vehicle: suspension in saline 99 % of control | [8] 102 % of control | dose: 200.0 mg/kg/injection, schedule: Q01DX005 (ip), vehicle: suspension in saline 113 % of control | dose: 400.0 mg/kg/injection, schedule: Q01DX005 (ip), vehicle: saline 98 % of control | dose: 400.0 mg/kg/injection, schedule: Q01DX005 (ip), vehicle: suspension in saline 96 % of control
